Experimental data taken from PMC3498381, “Isolated Toll-like Receptor Transmembrane Domains Are Capable of Oligomerization” (PLoS ONE, 2012).
No end group written: not given here.

Columns and labels:
[1] = system: GpA TMD (functional ToxR chimera); assay: Dominant-negative (heterotypic) ToxR assay, GpA as dominant phenotype; assay type: cell-based; details: Miller units normalized to poly-Leu* = 1 and corrected for expression, lower = stronger interaction, N in table
Excerpt: (§1) Next, we investigated heterotypic interactions of the TLRs. We specifically studied TLR2, TLR1, and TLR6 because they are cell surface expressed receptors known to form functional heterodimers. To determine the ability of these three cell surface TLRs to have heterotypic interactions within its family, we studied the ability of the TLR1, TLR2, and TLR6 TMDs to interact with the TLR receptors also expressed at the cell surface; namely, TLR1, TLR2, TLR4, TLR5, TLR6, and TLR10. We monitored these interactions using a dominant-negative ToxR assay (Fig. S1B) which works by having a second TMD expressed with a non-functional ToxR* intracellular domain. This ToxR* domain is incapable of binding the ctx promoter making any interactions with this second expressed TMD unable to produce the reporter enzyme. As such, any interaction between the functional ToxR and non-functional ToxR* TMDs will result in a reduction in signal output.
(§2) Figure 3 Cell- Surface Toll-like Recptor Heterotypic Interactions. (A) A dominant-negative ToxR assay was used to study heterotypic interactions of the cell-surface TLRs. Two TLR TMDs were encoded in the FHK12 E.coli reporter strain, one with a functional ToxR domain (dominant phenotype) and one with a nonfunctional ToxR* domain (negative phenotype). Interaction between the two different TMDs leads to a reduction in signal from that seen for homotypic interactions. The TMDs for GpA, TLR1, TLR2, and TLR6 were used with the functional ToxR domain while TMDs for poly-Leucine, TMD5, integrin αIIb, TLR1, TLR2, TLR4, TLR5, TLR6, and TLR10 were used with the nonfunctional ToxR* domain. Interactions were most prominent for the TLRs known to have heterotypic interactions – TLR2-TLR1 and TLR2-TLR6. […] We also saw interaction with the same TMD further validating the homotypic interactions. […] Each dominant phenotype was done in 3 technical replicates with each negative phenotype and >6 measurements made for each replicate. Error bars depict the standard error of the mean (n- Tables S3, S5, S7, S9). Western blots staining for MBP were performed to monitor expression levels of the constructs with the upper band being functional ToxR chimeras and the lower band being nonfunctional ToxR* chimeras – (B) GpA, (C) TLR1, (D) TLR2, and (E) TLR6. Significant differences for the same dominant phenotype were determined by use of the Tukey-Kramer test.
(§3) For heterotypic interactions one plasmid containing a functional ToxR domain (200 ng) and a second plasmid containing a non-functional ToxR* domain (200 ng) were co-transformed into chemically competent FHK12 E. coli (400 µL) by incubating on ice for 30 min, heat shock at 42°C for 90 s, incubation on ice for 2 min, and addition of SOC media (1600 µL) followed by incubation with shaking for 1 h at 37°C. This transformation mixture (50 µL) was then used to spread LB-agar plates containing cholaramphenicol (30 µg/mL), kanamycin (33 µg/mL), and ampicillin (100 µg/mL) and grown overnight at 37°C. Single colonies were selected from the plates and grown in 5 mL LB media containing cholaramphenicol (30 µg/mL), kanamycin (33 µg/mL), ampicillin (100 µg/mL), and arabinose (0.0025%) overnight (16–20 h) with shaking at 37°C. Analysis of activity was monitored as described in homotypic ToxR assays. Western blotting was done in the same manner as the homotypic ToxR assay with one band appearing for the functional ToxR construct and a second band for the nonfunctional ToxR* construct. Data were normalized to poly-Leu* Miller Units and corrected for varying protein expression levels using ImageJ (NIH) as previously reported.

[2] = system: homotypic TMD-TMD interaction (ToxR / ctx promoter / β-galactosidase reporter in FHK12 E. coli); assay: Homotypic ToxR reporter assay (β-galactosidase); assay type: cell-based; details: for Mean homotypic TMD interaction (ToxR): β-galactosidase Miller units normalized to GpA signal and expression levels, FHK12 E. coli, 3 replicates with >6 measurements each, N in table
Description: . Various plasmid constructs for this assay make it possible to monitor both homotypic and heterotypic interactions that are driven by TMD-TMD association (Fig. S1).
We first investigated homotypic interactions because the majority of the TLR family members function as homodimers. […] This ΔTM construct consists of the same maltose binding protein and ToxR domain, but lacks a TMD for proper membrane insertion (Fig. S2). Statistical analysis using the Tukey-Kramer test was performed to analyze any significant differences between all possible pairs of average interaction potentials (Table S2). […] Among the TLRs, no discernable differences in grouping based on statistical analysis at p = 0.05 were indicated as all receptors belonged to multiple groups, except for TLR1, which with the lowest interaction potential among the family of receptors only existed in one group (Table S1).
Figure 2 Toll-like Receptor Transmembrane Domain Homotypic Interactions. (A) The ToxR assay was used to study homotypic interactions of the TLR TMDs. A chimeric protein expressing the TMD of interest was monitored through β-galactosidase activity. In all cases, we saw that the TLRs have interaction potential solely from TMD-TMD interactions. Each TLR TMD interaction measurement analysis was performed on 3 technical replicates with >6 measurements for each replicate. Error bars depict the standard error of the mean (n – Table S1). Western blots staining for MBP were performed to monitor expression levels of the constructs – (B) chimeric maltose binding protein expression, (C) endogenous maltose binding protein expression. All samples were normalized to the GpA signal and expression levels.
Briefly, the ToxR plasmids containing the TMD of interest (200 ng) were transformed into chemically competent FHK12 E. coli (200 µL) by incubating on ice for 30 min, heat shock at 42°C for 90 s, incubation on ice for 2 min, and addition of SOC media (800 µL) followed by incubation with shaking for 1 h at 37°C. This transformation mixture (50 µL) was then spread on LB agar plates containing cholaramphenicol (30 µg/mL) and ampicillin (100 µg/mL) and grown overnight at 37°C. Single colonies were selected from the plates in triplicate and added to 5 mL of LB media containing cholaramphenicol (30 µg/mL), ampicillin (100 µg/mL), and arabinose (0.0025%). These cultures were incubated overnight (16–20 h) with shaking at 37°C. The β-galactosidase activity was monitored using a Beckman Coulter DTX 880 plate-reader. First 5 µL of each culture was plated >6 times in a clear 96-well flat bottom culture plate (Sarstedt) containing 100 µL of Z-buffer/chloroform (1% β-mercaptoethanol, 10% chloroform, 89% Z buffer: […], 10 mM potassium chloride, 1 mM magnesium sulfate, pH 7.0). The cell densities of each well were recorded by measuring the OD595. Bacteria were lysed by the addition of 50 µL Z-buffer/SDS (1.6% sodium dodecyl sulfate w/v in Z-buffer) and shaking at 28°C for 10 min. Enzymatic activity was measured by adding 50 µL of Z-buffer/ortho-Nitrophenyl-β-[…] (ONPG) (0.4% ONPG w/v in Z-buffer) and monitoring the reaction at 405 nm for a period of 20 min at 30 s intervals. Miller units were calculated using the equation: [drawing 1]
Western blotting was performed with antiserum recognizing the maltose-binding protein moiety of the constructs (Abcam). Data were normalized to GpA Miller Units and protein expression levels using ImageJ (NIH) as reported previously.

[3] = system: TLR2 TMD (functional ToxR chimera); assay: Dominant-negative (heterotypic) ToxR assay, TLR2 as dominant phenotype; assay type: cell-based; details: Miller units normalized to poly-Leu* = 1 and corrected for expression, lower = stronger interaction, N in table
Excerpt: as §1, §2, §3

[4] = system: TLR1 TMD (functional ToxR chimera); assay: Dominant-negative (heterotypic) ToxR assay, TLR1 as dominant phenotype; assay type: cell-based; details: Miller units normalized to poly-Leu* = 1 and corrected for expression, lower = stronger interaction, N in table
Excerpt: as §1, §2, §3

[5] = system: TLR6 TMD (functional ToxR chimera); assay: Dominant-negative (heterotypic) ToxR assay, TLR6 as dominant phenotype; assay type: cell-based, E. coli; details: Miller units normalized to poly-Leu* = 1 and corrected for expression, lower = stronger interaction, N in table
Excerpt: as §1, §2, §3

| Substance | Mean GpA-TMD* heterotypic interaction (ToxR signal) [1] | Mean homotypic TMD interaction (ToxR) [2] | Mean TLR2-TMD* heterotypic interaction (ToxR signal) [3] | Mean TLR1-TMD* heterotypic interaction (ToxR signal) [4] | Mean TLR6-TMD* heterotypic interaction (ToxR signal) [5] | Effect of TLR2 point mutation on homotypic interaction ([2]; homotypic ToxR assay, compared with wild type TLR2 TMD (Fig. 7A)) |
| --- | --- | --- | --- | --- | --- | --- |
| TLR10*: TLR10 TMD chimera with nonfunctional ToxR* domain (negative phenotype) (GNRASALLIVTIVVIMLVLGLAVAFCCLGSLIN; cysteine pairing not given here; also: fused to non-functional ToxR* (S87H) and maltose binding protein, ends not given here) | 1.1244 | 0.8259 | 0.3877 | 0.3608 | 0.3445 |  |
| GNRASWQLLAFFLAFFLDLILLIIALYLGSLIN [TMD5*, TMD5 of latent membrane protein 1 fused to nonfunctional ToxR* domain, unrelated receptor, reference compound] | 1.1703 |  | 1.1904 | 1.0921 | 1.1235 |  |
| GNRASLILF S L S I S V S LFLMVMMTASHLGSLIN [TLR7 TMD] |  | 0.4947 |  |  |  |  |
| GNRASFALSLL A V A L G L G VPMLHHLGSLIN [TLR9 TMD] |  | 0.7992 |  |  |  |  |
| GNRASWVLV G VLG G LLLLTILVLAMWGSLIN [Integrin*, Integrin αIIb TMD fused to nonfunctional ToxR* domain, unrelated receptor, reference compound] | 1.0189 |  | 0.7609 | 0.7583 | 0.6106 |  |
| TLR5*: TLR5 TMD chimera with nonfunctional ToxR* domain (negative phenotype) (GNRASFSLFIVCTVTLTLFLMTILTVTGSLIN; also: fused to non-functional ToxR* (S87H) and maltose binding protein, ends not given here) | 0.8934 | 0.6087 | 0.9233 | 0.6805 |  |  |
| GNRASLIIF G VMA G VIGTILGSLIN [GpA TMD, reference compound] |  | 1.0000 |  |  |  |  |
| GNRASLFFMINTSILLIFIFIVLLIHFGSLIN [TLR3 TMD] |  | 0.8032 |  |  |  |  |
| GNRASVTAVILFFFTFFITTMVMLAALAGSLIN [TLR8 TMD] |  | 0.7486 |  |  |  |  |
| TLR4*: TLR4 TMD chimera with nonfunctional ToxR* domain (negative phenotype) (GNRASTIIGVSVLVVSVVAVLVYKFYFGSLIN; also: fused to non-functional ToxR* (S87H) and maltose binding protein, ends not given here) | 1.1905 | 0.5620 | 1.1386 | 0.8709 | 0.9610 |  |
| TLR2 G593V (GNRASALVSVMCCALFLLILLTGVLCGSLIN; cysteine pairing not given here; also: fused to maltose-binding protein and ToxR activation domain, ends not given here) |  |  |  |  |  | no mutation demonstrated significant difference from the wild type TLR2 TMD |
